Reference: ChEMBL document CHEMBL1141728, “Transtorine, a new quinoline alkaloid from Ephedra transitoria” (1998)
≈ marks a conversion by molar mass, not a printed value. Calls of active or inactive are those of the source. The calls are words filed in the database; no cut-off is given here.

Key:
[1] = tested on: Pseudomonas aeruginosa; experiment: Antibacterial activity against Pseudomonas aeruginosa by disk diffusion method; type: functional
[2] = tested on: Proteus mirabilis; experiment: Antibacterial activity against Proteus mirabilis by disk diffusion method
[3] = tested on: Shigella flexneri; experiment: Antibacterial activity against Shigella flexneri by disk diffusion method; type: functional
[4] = tested on: Bacillus subtilis; experiment: Antibacterial activity against Bacillus subtilis by disk diffusion method
[5] = tested on: Enterobacter cloacae; experiment: Antibacterial activity against Enterobacter cloacae by disk diffusion method; type: functional
[6] = tested on: Staphylococcus aureus; experiment: Antibacterial activity against Staphylococcus aureus by disk diffusion method; type: functional

MIC [5] [µg/mL]	MIC [6] [µg/mL]	Structure (SMILES)	MIC [1] [µg/mL]	MIC [2] [µg/mL]	MIC [3] [µg/mL]	MIC [4] [µg/mL]	Activity [3]
		O=C(O)c1cn(C2CC2)c2cc(N3CCNCC3)c(F)cc2c1=O [CIPROFLOXACIN]	20 (≈ 60.4 µM)	20 (≈ 60.4 µM)	20 (≈ 60.4 µM)	20 (≈ 60.4 µM)	
450 (≈ 2380 µM)	380 (≈ 2010 µM)	O=C(O)c1cc(=O)c2ccccc2[nH]1 [TRANSTORINE]	500 (≈ 2640 µM)				inactive
